The values that follow come from ChEMBL document CHEMBL1146065, “Structure-based optimization of azole antifungal agents by CoMFA, CoMSIA, and molecular docking” (2006).

Values after ≈ are worked out from the molar mass of the structure shown.

Common to all, as to assay type: functional
One assay deals with Candida albicans. The assay can be described thus: Antifungal activity against Candida albicans.
The test system of the next assay is Candida parapsilosis. The assay can be described thus: Antifungal activity against Candida parapsilosis. The settings on record: Lodderomyces parapsilosis.
Another assay concerns Candida tropicalis. The assay can be described thus: Antifungal activity against Candida tropicalis.
The next assay deals with Cryptococcus neoformans. The assay can be described thus: Antifungal activity against Cryptococcus neoformans.
In a further assay the test system is Aspergillus fumigatus. Kind of assay: Antifungal activity against Aspergillus fumigatus.
The test system of the next assay is Fonsecaea pedrosoi. Kind of assay: Antifungal activity against Fonsecaea pedrosoi.
The next assay deals with Trichophyton rubrum. Kind of assay: Antifungal activity against Trichophyton rubrum.
In another assay the test system is Sporothrix schenckii. The assay can be described thus: Antifungal activity against Sporothrix schenckii.

As usually defined, the MIC80 is the lowest concentration that inhibits either 80% of growth or 80% of the strains tested, depending on the study. A higher MIC80 goes with weaker potency. Consider `CN(Cc1ccc(-n2cnn(Cc3ccc(Cl)cc3)c2=O)cc1)CC(O)(Cn1cncn1)c1ccc(F)cc1F` (stereo unspecified), for which the MIC80 against Candida albicans is 0.002 µg/mL (≈ 0.00353 µM); in the assay on Candida parapsilosis it was 0.008 µg/mL (≈ 0.0141 µM); with Candida tropicalis it was 0.0625 µg/mL (≈ 0.11 µM); in the assay on Cryptococcus neoformans it was 0.5 µg/mL (≈ 0.883 µM); against Aspergillus fumigatus it was 4 µg/mL (≈ 7.07 µM); against Fonsecaea pedrosoi, 0.125 µg/mL (≈ 0.221 µM). For the same compound, the results for the MIC80 against Trichophyton rubrum and in the assay on Sporothrix schenckii were 0.5 µg/mL (≈ 0.883 µM) and 64 µg/mL (≈ 113 µM), respectively.
With `CN(Cc1ccc(-n2cnn(Cc3cc(F)ccc3Br)c2=O)cc1)CC(O)(Cn1cncn1)c1ccc(F)cc1F` (stereo unspecified), the MIC80 is 0.002 µg/mL (≈ 0.00318 µM) in the assay on Candida albicans; 0.008 µg/mL (≈ 0.0127 µM) against Candida parapsilosis; 0.25 µg/mL (≈ 0.398 µM) in the assay on Candida tropicalis; 0.5 µg/mL (≈ 0.796 µM) with Cryptococcus neoformans; 32 µg/mL (≈ 50.9 µM) in the assay on Aspergillus fumigatus; 0.25 µg/mL (≈ 0.398 µM) in the assay on Fonsecaea pedrosoi. For the same compound, the MIC80 stood at 2 µg/mL (≈ 3.18 µM) in the assay on Trichophyton rubrum and 16 µg/mL (≈ 25.5 µM) with Sporothrix schenckii.
Consider `CN(Cc1ccc(-n2cnn(Cc3ccc(Br)cc3F)c2=O)cc1)CC(O)(Cn1cncn1)c1ccc(F)cc1F` (stereo unspecified), for which the MIC80 with Candida albicans amounted to 0.002 µg/mL (≈ 0.00318 µM); against Candida parapsilosis it was 0.008 µg/mL (≈ 0.0127 µM); with Candida tropicalis, 0.0625 µg/mL (≈ 0.0995 µM); with Cryptococcus neoformans it was 0.125 µg/mL (≈ 0.199 µM); against Aspergillus fumigatus, 4 µg/mL (≈ 6.36 µM); against Fonsecaea pedrosoi, 0.125 µg/mL (≈ 0.199 µM). The results for the MIC80 against Trichophyton rubrum and with Sporothrix schenckii were 0.5 µg/mL (≈ 0.796 µM) and 64 µg/mL (≈ 102 µM), respectively.
In the case of `CN(Cc1ccc(-n2cnn(Cc3ccc(Cl)cc3Cl)c2=O)cc1)CC(O)(Cn1cncn1)c1ccc(F)cc1F` (stereo unspecified), the MIC80 in the assay on Candida albicans is 0.002 µg/mL (≈ 0.00333 µM); in the assay with Candida parapsilosis, 0.008 µg/mL (≈ 0.0133 µM); against Candida tropicalis it was 0.0625 µg/mL (≈ 0.104 µM); with Cryptococcus neoformans, 0.008 µg/mL (≈ 0.0133 µM); with Aspergillus fumigatus, 2 µg/mL (≈ 3.33 µM); in the assay with Fonsecaea pedrosoi it was 0.125 µg/mL (≈ 0.208 µM). For the same compound, the MIC80 was 0.25 µg/mL (≈ 0.416 µM) with Trichophyton rubrum and 4 µg/mL (≈ 6.66 µM) against Sporothrix schenckii.
For `CN(Cc1ccc(-n2cnn(Cc3cccc(C(F)(F)F)c3)c2=O)cc1)CC(O)(Cn1cncn1)c1ccc(F)cc1F` (stereo unspecified), the MIC80 against Candida albicans came out at 0.002 µg/mL (≈ 0.00334 µM); with Candida parapsilosis it was 0.008 µg/mL (≈ 0.0133 µM); against Candida tropicalis, 0.0625 µg/mL (≈ 0.104 µM); in the assay with Cryptococcus neoformans, 0.125 µg/mL (≈ 0.208 µM); with Aspergillus fumigatus it was 16 µg/mL (≈ 26.7 µM); against Fonsecaea pedrosoi it was 0.125 µg/mL (≈ 0.208 µM). Further, the MIC80 with Trichophyton rubrum stood at 0.5 µg/mL (≈ 0.834 µM); in the assay with Sporothrix schenckii it was 64 µg/mL (≈ 107 µM).
Regarding `CN(Cc1ccc(-n2cnn(Cc3ccc(C(F)(F)F)cc3)c2=O)cc1)CC(O)(Cn1cncn1)c1ccc(F)cc1F` (stereo unspecified), the MIC80 was 0.001 µg/mL (≈ 0.00167 µM) against Candida albicans; 0.008 µg/mL (≈ 0.0133 µM) against Candida parapsilosis; 0.0625 µg/mL (≈ 0.104 µM) in the assay with Candida tropicalis; 0.25 µg/mL (≈ 0.417 µM) against Cryptococcus neoformans; 8 µg/mL (≈ 13.3 µM) in the assay with Aspergillus fumigatus; 0.0625 µg/mL (≈ 0.104 µM) in the assay with Fonsecaea pedrosoi. The figures for the MIC80 with Trichophyton rubrum and against Sporothrix schenckii were 0.5 µg/mL (≈ 0.834 µM) and 16 µg/mL (≈ 26.7 µM), respectively.
As to `CN(Cc1ccc(-n2cnn(Cc3cccc(Cl)c3)c2=O)cc1)CC(O)(Cn1cncn1)c1ccc(F)cc1F` (stereo unspecified), the MIC80 was 0.016 µg/mL (≈ 0.0283 µM) against Candida albicans; 4 µg/mL (≈ 7.07 µM) with Candida parapsilosis; 0.5 µg/mL (≈ 0.883 µM) against Candida tropicalis; 0.5 µg/mL (≈ 0.883 µM) in the assay on Cryptococcus neoformans; 8 µg/mL (≈ 14.1 µM) against Aspergillus fumigatus; 0.125 µg/mL (≈ 0.221 µM) against Fonsecaea pedrosoi. Further, the MIC80 with Trichophyton rubrum was found to be 0.5 µg/mL (≈ 0.883 µM); against Sporothrix schenckii it was 32 µg/mL (≈ 56.5 µM).
`CN(Cc1ccc(-n2cnn(Cc3ccc(F)cc3Br)c2=O)cc1)CC(O)(Cn1cncn1)c1ccc(F)cc1F` (stereo unspecified): the MIC80 with Candida albicans was determined as 0.004 µg/mL (≈ 0.00636 µM); with Candida parapsilosis, 0.008 µg/mL (≈ 0.0127 µM); in the assay on Candida tropicalis it was 0.125 µg/mL (≈ 0.199 µM); in the assay with Cryptococcus neoformans, 0.125 µg/mL (≈ 0.199 µM); in the assay with Aspergillus fumigatus it was 16 µg/mL (≈ 25.5 µM); against Fonsecaea pedrosoi, 0.25 µg/mL (≈ 0.398 µM). For the same compound, the MIC80 against Trichophyton rubrum came out at 1 µg/mL (≈ 1.59 µM); with Sporothrix schenckii, 64 µg/mL (≈ 102 µM).
As to `CN(Cc1ccc(-n2cnn(Cc3ccc(Br)cc3)c2=O)cc1)CC(O)(Cn1cncn1)c1ccc(F)cc1F` (stereo unspecified), the MIC80 in the assay with Candida albicans was 0.002 µg/mL (≈ 0.00328 µM); against Candida parapsilosis, 0.008 µg/mL (≈ 0.0131 µM); in the assay with Candida tropicalis, 0.0625 µg/mL (≈ 0.102 µM); in the assay on Cryptococcus neoformans it was 0.008 µg/mL (≈ 0.0131 µM); in the assay with Aspergillus fumigatus, 8 µg/mL (≈ 13.1 µM); in the assay with Fonsecaea pedrosoi, 0.0625 µg/mL (≈ 0.102 µM). The values for the MIC80 against Trichophyton rubrum and against Sporothrix schenckii were 0.25 µg/mL (≈ 0.41 µM) and 64 µg/mL (≈ 105 µM), respectively.
Turning to `CN(Cc1ccc(-n2cnn(Cc3ccc(C(C)(C)C)cc3)c2=O)cc1)CC(O)(Cn1cncn1)c1ccc(F)cc1F` (stereo unspecified), the MIC80 in the assay with Candida albicans amounted to 0.031 µg/mL (≈ 0.0528 µM); in the assay on Candida parapsilosis it was 4 µg/mL (≈ 6.81 µM); with Candida tropicalis, 1 µg/mL (≈ 1.7 µM); in the assay on Cryptococcus neoformans, 2 µg/mL (≈ 3.4 µM); in the assay with Aspergillus fumigatus, 8 µg/mL (≈ 13.6 µM); in the assay with Fonsecaea pedrosoi, 0.25 µg/mL (≈ 0.425 µM). Also, the MIC80 against Trichophyton rubrum amounted to 0.5 µg/mL (≈ 0.851 µM); in the assay with Sporothrix schenckii it was 32 µg/mL (≈ 54.5 µM).
On to `CN(Cc1ccc(-n2cnn(Cc3ccc(I)cc3)c2=O)cc1)CC(O)(Cn1cncn1)c1ccc(F)cc1F` (stereo unspecified), for which the MIC80 in the assay with Candida albicans stood at 0.031 µg/mL (≈ 0.0472 µM); in the assay with Candida parapsilosis, 0.031 µg/mL (≈ 0.0472 µM); in the assay on Candida tropicalis it was 1 µg/mL (≈ 1.52 µM); against Cryptococcus neoformans it was 0.25 µg/mL (≈ 0.38 µM); with Aspergillus fumigatus, 2 µg/mL (≈ 3.04 µM); against Fonsecaea pedrosoi, 0.0625 µg/mL (≈ 0.0951 µM). In addition, the values for the MIC80 with Trichophyton rubrum and in the assay with Sporothrix schenckii were 0.25 µg/mL (≈ 0.38 µM) and 64 µg/mL (≈ 97.3 µM), respectively.
Consider `CN(Cc1ccc(-n2cnn(CC(=O)c3ccc(C(C)(C)C)cc3)c2=O)cc1)CC(O)(Cn1cncn1)c1ccc(F)cc1F` (stereo unspecified), for which the MIC80 against Candida albicans worked out at 0.0625 µg/mL (≈ 0.102 µM); against Candida parapsilosis it was 2 µg/mL (≈ 3.25 µM); in the assay on Candida tropicalis, 0.5 µg/mL (≈ 0.812 µM); with Cryptococcus neoformans, 32 µg/mL (≈ 52 µM); in the assay with Aspergillus fumigatus, 64 µg/mL (≈ 104 µM); in the assay with Fonsecaea pedrosoi it was 2 µg/mL (≈ 3.25 µM). Besides, the MIC80 in the assay with Trichophyton rubrum and in the assay on Sporothrix schenckii was 64 µg/mL (≈ 104 µM) in each case.
